Results taken from patent US5482954A, “Signal transduction inhibitor triazole and diazole compounds” (priority 1994, dated 1996).
Read-outs that look alike come from different tables or passages of the source.

Tests used:
A2058 or 5R cells = test: Cell spreading; type: cell-based
Procedure: (§1) Cells were preincubated with compound 1 (0.03-10 μg/mL) for periods of 2 to 48 hr prior to the adhesion assay. In addition, compound 1 remained present during the assay. […] Maximal inhibition of adhesion was observed following overnight exposure of the cells to compound 1.

A2058 and 5R cells = test: Reversibility of inhibition of tumor cell adhesion; type: cell-based; conditions: for activity at 1 µg/mL / activity at 5 µg/mL: Homo sapiens, read-out: Adhesion (% of control)
Procedure: An adhesion assay was developed using tissue culture plastic petri dishes as the substrate. Aliquots of cells treated similarly to those in the cell motility assay were plated in triplicate onto the dishes and incubated for 90 rain at 37° C. Cells which were either poorly adherent or nonadherent were gently washed off with PBS. The remaining cells were stained with Diff Quik™ (from Baxter Scientific Products, McGaw Park. Ill., USA). Adherence was quantitated using laser densitometry and values were calculated as a percentage of the control adherence.
As with cell motility, the effect of compound 1 on cell adhesion is reversible. A2058 and 5R cells were treated as above for testing the reversibility of cell motility. The resulting "treated" cells (±), "washout" cells (±), and "control" cells were then subjected to the adhesion assay.

[1] = tested on: 5R ras-transfected rat embryo fibroblasts; test: AMF-stimulated cell motility; type: cell-based
Procedure: (§2) The cell motility assay has been described. See, Stracke et al., Biochem. Biophys. Res. Comm., 146:339-345 (1987). Cells from the A2058 human melanoma line which was maintained in subconfluent culture were harvested with trypsin-EDTA, and were allowed to recover for 1 hr at room temperature. Cells from the 5R H-ras transformed (diploid) rat embryo fibroblast line were harvested with 2 mM EDTA in PBS without divalent cations. Cells were resuspended in serum-free media containing 0.1% BSA. This DMEM/0.1% BSA was used as the control for all subsequent assays. The assays were performed in triplicate using a 48-well chemotaxis chamber with 8μ Nucleopore, type IV collagen-coated filters. The chambers were incubated at 37° C. for 4 hr, stained and placed onto glass slides with the original cell side up so that the cell pellet could be wiped from the surface. Cells that had migrated through the pores were trapped between glass and membrane and could be quantitated by laser densitometry.
(§3) Compound 1 was preincubated with the cells for various periods of time, added at the start of the assay, or added later. Additionally, compound 1 remained present during the motility assay. The cells were assayed for their motile response to AMF. AMF stimulates random and directed locomotion of 5R ras-transfected rat embryo fibroblasts and A2058 human melanoma cells. […] Cell viability determined by trypan blue exclusion averaged greater than 96%. Cells exposed to various concentrations of compound 1 were tested for their response to AMF vs. control. Percent stimulated motility (in densitometer units) is defined as: […]
(§4) (AMF stimulated-control)Compound 1 /(AMF stimulated-control)untreated

[2] = tested on: A2058 human melanoma cells; test: AMF-stimulated cell motility; type: cell-based
Procedure: as §2, §3, §4

5R cells = test: Oral treatment, prevention of experimental metastasis; type: in vivo, nude mice
Procedure: Finally, compound 1 was tested for efficacy in prevention of the formation and growth of experimental metastases. Oral administration of compound 1 or PEG-400 vehicle to nude mice was carried out for 5 days. On day 6, untreated 5R cells (10^4) were introduced into the animals by tail vein inoculation. The animals were then randomized into four groups. Two groups of animals which had received only vehicle were subsequently treated with either vehicle (PEG/PEG) or 1 (PEG/1). The other two groups which had been treated with 1 were similarly treated post-inoculation with either vehicle (1/PEG) or 1 (1/1). Treatments were continued for 10 d, after which the lungs were removed and the pulmonary metastases were counted. Histologic confirmation of the fibrosarcoma due to the 5R cells was obtained. […] No toxicity was noted during treatment or at necropsy.

[3] = tested on: cell adhesion to fibronectin; test: Cell adhesion to fibronectin; type: cell-based; conditions: data not shown
Procedure: as §1

solid tumor metastasis = test: Phase I clinical study, tumor response; type: in vivo, human
Source text: This example illustrates the effect of compound 1 on tumor growth and metastasis when administered orally to seven patients in an FDA approved phase I clinical study.
Seven patients with solid tumor metastasis are undergoing treatment via oral administration of compound 1 under the FDA approved phase I clinical study. Table J provides data on the patients' response to this treatment. PT# is patient number. Response is the sum of the products of bidirectional measurements. No measurement means that while the disease was evaluable, it was not measureable. The concentration of the drug in the blood of the patients is well within the range which inhibits signal transduction in vitro and which inhibits tumor growth in vitro and in animals.

CHOm5 cells = test: Carbachol-stimulated 45Ca2+ influx; type: cell-based, Chinese hamster; set-up: % Inhibition of 45Ca2+ Influx into CHOm5 Cells: concentration or dose not given beside the values
Procedure: Calcium influx was determined using two methods. The first method involved the use of ^45 Ca^2+, while the second method utilized a fluorescent intracellular calcium chelator, Fura-2. The method using Fura-2 is semi-quantitative and is preferred for kinetic analysis and screening whereas the ^45 Ca^2+ method is quantitative.
CHOm5 cells in monolayer culture were washed free of serum-containing media and incubated with either carbachol or the calcium ionophore A23187 (from Molecular Probes, Eugene, Oreg., USA) in the presence of ^45 Ca^2+ and defined buffer (E2 medium with 0.1 mM MgCl2 and 1.0 mM CaCl2). After incubation for 5 min, the radioactive buffer was rapidly and repeatedly washed off with media containing LaCl3, a competitor of calcium efflux. The cell monolayer was solubilized and the calcium uptake was determined by scintillation counting.
Stimulated uptake of radiolabelled calcium was measured as described above. The abbreviations CTL and CC are control and carbachol-stimulated calcium influx values. respectively.

[4] = overnight preincubation, AMF stimulation
[5] = patient 1, melanoma, 100 mg/m^2 qod
[6] = patient 2, colon, 100 mg/m^2 qd
[7] = patient 4, ovary, 100 mg/m^2 qd

`NC(=O)c1nnn(Cc2cc(Cl)c(C(=O)c3ccc(Cl)cc3)c(Cl)c2)c1N` [Compound 1] was tested, and the cell spreading (A2058 or 5R cells) was “not markedly decreased”, the “reversibility of adhesion inhibition” value (A2058 and 5R cells) was “reversible” and the activity at 1 µg/mL (A2058 and 5R cells; A2058, 1 μg/mL (+/-)) was 106%. For the same molecule, the activity at 1 µg/mL (A2058 and 5R cells; A2058, 1 μg/mL (-/+)) was 33%, the activity at 5 µg/mL (A2058 and 5R cells; A2058, 5 μg/mL (+/-)) was 96% and the activity at 5 µg/mL (A2058 and 5R cells; A2058, 5 μg/mL (-/+)) was 37%. For the same molecule, the “inhibition of AMF-stimulated tumor cell motility” value ([1]; 0.03-10 μg/ml) was “inhibited AMF-stimulated tumor cell motility in a dose dependent manner”, the “decrease in stimulated motility” value [1, 4] was “up to 55%” and the “inhibition of AMF-stimulated tumor cell motility” value ([2]; 0.03-10 μg/ml) was “inhibited AMF-stimulated tumor cell motility in a dose dependent manner”. For the same molecule, the “inhibition of motility, combination of 1 and PT vs either alone” value ([2]; 1 (1 μg/ml) + PT (0.1 μg/ml), data not shown, cell line not stated) was “did not result in greater inhibition of motility than either drug alone”, the “decrease in stimulated motility” value [2, 4] was “up to 55%” and the inhibition of motility ([2]; same dose as PI assay (1.0 μg/mL)) was 45%. For the same molecule, the toxicity (5R cells; during treatment or at necropsy) was “No toxicity”, the metastatic colonization (5R cells; given prior to tumor cell injection) was “prevented metastatic colonization as effectively as when 1 was administered only after tumor cell inoculation or when given continuously” and the “number of pulmonary metastases” value (5R cells; treatment prior to, post, or prior to and post inoculation) was “statistically significantly inhibited”. For the same molecule, the “cell adhesion to fibronectin” value [3] was “decreased cell adhesion”, the RESPONSE (solid tumor metastasis; [5]) was “Stable” and the “RESPONSE (sum of products of bidirectional measurements)” value (solid tumor metastasis; [5]) was “+8%”. The “inhibition of growth rate (cm^2 /day)” value (solid tumor metastasis; patient 1, metastasis lesion #1, X-ray) was 79%, the “inhibition of growth rate (cm^2 /day)” value (solid tumor metastasis; patient 1, metastasis lesion #2, X-ray) was 59% and the “suppression and regression of colon cancer metastases” value (solid tumor metastasis; patient 2) was “suppression and regression of 3 of 3 colon cancer metastases”. The RESPONSE (solid tumor metastasis; [6]) was “Stable”, the “RESPONSE (sum of products of bidirectional measurements)” value (solid tumor metastasis; [6]) was -22% and the RESPONSE (solid tumor metastasis; patient 3, colon, 100 mg/m^2 qd) was “Stable”. For the same molecule, the RESPONSE (solid tumor metastasis; [7]) was “Stable”, the “RESPONSE (sum of products of bidirectional measurements)” value (solid tumor metastasis; [7]) was -21% and the RESPONSE (solid tumor metastasis; patient 5, lung, 200 mg/m^2 qod) was “Stable”. For the same molecule, the RESPONSE (solid tumor metastasis; patient 6, carcinoid, 200 mg/m^2 qod) was “Stable”, the RESPONSE (solid tumor metastasis; patient 7, colon, 200 mg/m^2 qod) was “Progres-” and the IC50 (CHOm5 cells; Cricetulus griseus, FIG. 12, carbachol) was 935 ± 18 nM. The “% Inhibition of 45Ca2+ Influx into CHOm5 Cells” value (CHOm5 cells; Table I, carbachol-stimulated) was 74%.
